Values of other authors in patent US20170325481A1, “METHOD OF FORMING ENCAPSULATED COMPOSITIONS WITH ENHANCED SOLUBILITY AND STABILITY” (KEMIN INDUSTRIES, INC., priority 2011, published 2017).

Conditions: multiple nanosize emulsions, 4 weeks of storage at 50° C.

β-carotene left after storage: 32.3%
Structure (SMILES): CC1=C(/C=C/C(C)=C/C=C/C(C)=C/C=C/C=C(C)/C=C/C=C(C)/C=C/C2=C(C)CCCC2(C)C)C(C)(C)CCC1 [β-carotene]
